Test results as given in US8383637B2, “2-amino-quinazoline derivatives useful as inhibitors of β-secretase (BACE)” (Jansssen Pharmaceutica N.V., priority 2004, dated 2013).
Where two headings read alike, the source gives them in different places.

Key:
β-secretase(BACE) [1] = target: T1, β-secretase(BACE) (Homo sapiens, UniProt P56817); assay: BACE Assay-2 (FS1 substrate, IC50 and Ki); assay type: biochemical; details: procedure of Example 159, FS1 substrate; read-out: Ki μM (159)
T1 construct: purchased Panvera
T1 sequence (P56817 46-501): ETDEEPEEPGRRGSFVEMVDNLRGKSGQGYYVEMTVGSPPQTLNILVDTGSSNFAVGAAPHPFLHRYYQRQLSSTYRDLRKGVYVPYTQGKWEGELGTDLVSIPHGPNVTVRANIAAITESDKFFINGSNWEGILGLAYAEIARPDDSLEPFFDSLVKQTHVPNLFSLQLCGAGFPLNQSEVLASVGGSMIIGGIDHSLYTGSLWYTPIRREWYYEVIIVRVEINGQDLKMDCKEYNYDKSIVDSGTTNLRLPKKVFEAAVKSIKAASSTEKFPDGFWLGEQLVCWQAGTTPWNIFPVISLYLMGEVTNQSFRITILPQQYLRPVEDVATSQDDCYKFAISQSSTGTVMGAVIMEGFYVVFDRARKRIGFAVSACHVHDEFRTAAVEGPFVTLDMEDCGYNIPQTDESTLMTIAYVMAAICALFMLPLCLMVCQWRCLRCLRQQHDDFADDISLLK
Experimental: The FS1-substrate stock solution was prepared in DMSO as a 10 mg/mL solution. The FS1-substrate working solution was prepared by diluting the 10 mg/mL stock solution with substrate assay buffer to a final concentration of 300 μg/mL. The β-secretase (BACE) working solution was prepared by diluting a 0.83 mg/mL BACE stock solution with enzyme assay buffer to a final concentration of 4 μg/mL.
Test compounds were dissolved in DMSO at 10 mM.
The procedure for this assay was as follows: 15 μL of BACE working solution was pipetted into each well of a 96-well plate. To each well was then pipetted 2 μL of test compound at the selected concentration. Test compound and BACE were then mixed with a pipettor and incubated for 20 min at room temperature. To each well was then added 10 μL of the FS1 substrate working solution.
The procedure for the positive control was as follows: 15 μL of BACE working solution was pipetted into each well to be used as a positive control. To each well was then pipetted 2 μL of vehicle. Vehicle and BACE were then mixed with a pipettor and incubated for 20 min at room temperature. To each well was then added 10 μL of the FS1 substrate working solution.
For test compounds, measured at multiple concentrations, the measured T0 and T60 values were used to calculate an IC50 value using Graphpad Software (or PIR). For test compounds, Ki inhibition was determined as follows: For each compound concentration and positive control, rate of cleavage of substrate (Vi, where i=compound concentration in μM) was determined as Δ Fluorescence/Δ time (min). Cleavage rates (Vi) were plotted as a function of inhibitor concentration in μM [I]. The Ki was then determined by fitting the following equation to the graph of [I] vs Vi Y=aVmax/(50+24*(1+X/Ki)),

β-secretase(BACE) [2] = target: T1, β-secretase(BACE); assay: BACE FS1% Inhibition Assay; assay type: biochemical; details: FS1 substrate
Outline: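 Human BACE (4 μg/mL working solution) preincubated 20 min at room temperature with compound, then FS1 substrate (300 μg/mL working solution) added and incubated 1 h at room temperature. Percent inhibition calculated at each compound concentration against blank and vehicle controls.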

[3] = 0.3 μM test compound, read-out: % Inhibition (FS) 0.3 μM
[4] = 1 μM test compound, read-out: % Inhibition (FS) 1 μM
[5] = 3 μM test compound, read-out: % Inhibition (FS) 3 μM
[6] = 0.3 μM test compound, read-out: % Inhibition (FS)
[7] = 1 μM test compound, read-out: % Inhibition (FS)
[8] = 3 μM test compound, read-out: % Inhibition (FS)

SMILES | Ki (β-secretase(BACE) [1]) | % Inhibition (FS) 0.3 μM (β-secretase(BACE) [2]; 0.3 μM test compound) | % Inhibition (FS) 1 μM (β-secretase(BACE) [2]; 1 μM test compound) | % Inhibition (FS) 3 μM (β-secretase(BACE) [2]; 3 μM test compound) | other results
NC1=Nc2ccc(-c3cccc(Cl)c3)cc2CN1CCNC(=O)C1CCCCC1 [Compound 625] | 0.27 µM | – | – | – | inhibition at 0.3 µM (β-secretase(BACE) [2]; [3]): < 30%; inhibition at 1 µM (β-secretase(BACE) [2]; [4]): 54%; inhibition at 3 µM (β-secretase(BACE) [2]; [5]): 95%
NC1=Nc2ccc(Oc3ccccc3)cc2CN1[C@@H](CCC(=O)N(CCO)[C@H]1CC[C@@H](C(=O)O)CC1)C1CCOCC1 [Compound 750, (S)-Enantiomer of 4-cis-[[4-(2-Amino-6-phenoxy-4H-quinazolin-3-yl)-4-(tetrahydro-pyran-4-yl)-butyryl]-(2-hydroxy-ethyl)-amino]-cyclohexanecarboxylic acid] | 0.005 µM | – | – | – | inhibition at 0.3 µM (β-secretase(BACE) [2]; [6]): 115%; inhibition at 1 µM (β-secretase(BACE) [2]; [7]): 114%; inhibition at 3 µM (β-secretase(BACE) [2]; [8]): 116%
NC1=Nc2ccc(Oc3ccccc3)cc2CN1[C@@H](CCC(=O)N(CCO)[C@H]1CC[C@@H](C(=O)O)CC1)C1CCCCC1 [Compound 749, (S)-Enantiomer of 4-cis-[[4-(2-Amino-6-phenoxy-4H-quinazolin-3-yl)-4-cyclohexyl-butyryl]-(2-hydroxy-ethyl)-amino]-cyclohexanecarboxylic acid] | 0.017 µM | – | – | – | inhibition at 0.3 µM (β-secretase(BACE) [2]; [6]): 113%; inhibition at 1 µM (β-secretase(BACE) [2]; [7]): 112%; inhibition at 3 µM (β-secretase(BACE) [2]; [8]): 115%
CN(C(=O)CCC(C1CCCCC1)N1Cc2cc(Oc3ccccc3)ccc2N=C1N)C1CCCC(C(=O)O)C1 (centres unmarked) [Compound 776] | 0.107 µM | – | – | – | inhibition at 0.3 µM (β-secretase(BACE) [2]; [6]): 41%; inhibition at 1 µM (β-secretase(BACE) [2]; [7]): 95%; inhibition at 3 µM (β-secretase(BACE) [2]; [8]): 117%
CSc1ccccc1-c1ccc2c(c1)CN(CCNC(=O)C1CCCCC1)C(N)=N2 [Compound 540] | – | <30% | 30% | 84% | –
NC1=Nc2ccc(Oc3ccccc3)cc2CN1C1c2ccccc2-c2cccc(C(=O)N(C3CCCCC3)C3CCCCC3)c21 (centres unmarked) [Compound 124] | – | – | – | 56% | % Inhibition (FS) 10 μM (β-secretase(BACE) [2]; 10 μM test compound): 67%
NC1=Nc2ccc(Oc3ccccc3)cc2CN1CC1CCN(C(=O)C2CCCCC2)CC1 [Compound 525] | – | <30% | <30% | 70% | –
NC1=Nc2ccc(-c3ccc(F)cc3)cc2CN1CCNC(=O)C1CCCCC1 [Compound 624] | – | <30% | – | – | % Inhibition (FS) 1 μM (β-secretase(BACE) [2]; 1 μM test compound, 1 µM): 38%; % Inhibition (FS) 3 μM (β-secretase(BACE) [2]; 3 μM test compound, 3 µM): 78%
CCCC=Cc1ccc2c(c1)CN(CCNC(=O)C(C)(C)C)C(N)=N2 [Compound 574] | – | <30% | <30% | <30% | –
NC1=Nc2ccc(Oc3ccccc3)cc2CN1CCNC(=O)C1CC1c1ccccc1 (centres unmarked) [Compound 139] | – | – | – | <30% | % Inhibition (FS) 10 μM (β-secretase(BACE) [2]; 10 μM test compound): 61%
NC1=Nc2ccc(-c3ccccc3F)cc2CN1CCNC(=O)C12CC3CC(CC(C3)C1)C2 [Compound 644] | – | 46% | 72% | 104% | –
COc1ccc(-c2ccc3c(c2)CN(C(CCC(=O)N(C)C2CCCCC2)C2CCCCC2)C(N)=N3)cc1 (racemic) [Compound 226] | – | <30% | <30% | 54% | –
NC1=Nc2ccc(Oc3ccccc3)cc2CN1C(Cc1ccccc1)c1ocnc1C(=O)NC1CCCCC1 (centres unmarked) [Compound 606, 5-[1-(2-Amino-6-phenoxy-4H-quinazolin-3-yl)-2-phenyl-ethyl]-oxazole-4-carboxylic acid cyclohexylamide] | – | – | – | – | inhibition at 0.3 µM (β-secretase(BACE) [2]; [3]): < 30%; inhibition at 1 µM (β-secretase(BACE) [2]; [4]): < 30%; inhibition at 3 µM (β-secretase(BACE) [2]; [5]): 56%
CC(C)N(C(=O)CC(C1CCCCC1)N1Cc2cc(Oc3ccccc3)ccc2N=C1N)C1CCCCC1 (centres unmarked) [Compound 200] | – | <30% | <30% | <30% | –
CC(C)N1CCC(N(C)C(=O)CC[C@@H](C2CCCCC2)N2Cc3cc(Oc4ccccc4)ccc3N=C2N)CC1 [Compound 728] | – | – | – | – | % Inhibition (FS) (β-secretase(BACE) [2]; 0.3 μM test compound): 43%; % Inhibition (FS) (β-secretase(BACE) [2]; 1 μM test compound): 58%; % Inhibition (FS) (β-secretase(BACE) [2]; 3 μM test compound): 97%
NC1=Nc2ccc(Oc3ccccc3)cc2CN1C1CCN(C(=O)C2CCCC2)C1 (centres unmarked) [Compound 120] | – | – | – | <30% | % Inhibition (FS) 10 μM (β-secretase(BACE) [2]; 10 μM test compound): 34%
CN(C(=O)c1ccc2c(c1)C(N1Cc3cc(Oc4ccccc4)ccc3N=C1N)c1ccccc1-2)C1CCCCC1 (centres unmarked) [Compound 118] | – | – | – | – | % Inhibition (FS) 3 μM (β-secretase(BACE) [2]; 3 μM test compound, 3 µM): 48%; % Inhibition (FS) 10 μM (β-secretase(BACE) [2]; 10 μM test compound, 10 µM): 91%

Further lines, with some results ahead:

Ki (β-secretase(BACE) [1]) | % Inhibition (FS) 0.3 μM (β-secretase(BACE) [2]; 0.3 μM test compound) | % Inhibition (FS) 1 μM (β-secretase(BACE) [2]; 1 μM test compound) | % Inhibition (FS) 3 μM (β-secretase(BACE) [2]; 3 μM test compound) | SMILES | other results
3.8 µM | – | – | – | CN(C(=O)c1cccc(CN2Cc3cc(Oc4cccc(-c5ccccc5)c4)ccc3N=C2N)c1)C1CCCCC1 [Compound 231] | inhibition at 0.3 µM (β-secretase(BACE) [2]; [3]): < 30%; inhibition at 1 µM (β-secretase(BACE) [2]; [4]): 71%; inhibition at 3 µM (β-secretase(BACE) [2]; [5]): 75%
0.78 µM | – | – | – | Cc1ccccc1Sc1ccc2c(c1)CN(Cc1cccc(C(=O)N(C)C3CCCCC3)c1)C(N)=N2 [Compound 404] | inhibition at 0.3 µM (β-secretase(BACE) [2]; [3]): < 30%; inhibition at 1 µM (β-secretase(BACE) [2]; [4]): 32%; inhibition at 3 µM (β-secretase(BACE) [2]; [5]): 67%
0.49 µM | – | – | – | CN(C(=O)c1cccc(CN2Cc3cc(-c4ccccc4[N+](=O)[O-])ccc3N=C2N)c1)C1CCCCC1 [Compound 333] | inhibition at 0.3 µM (β-secretase(BACE) [2]; [3]): < 30%; inhibition at 1 µM (β-secretase(BACE) [2]; [4]): < 30%; inhibition at 3 µM (β-secretase(BACE) [2]; [5]): 78%
0.53 µM | – | – | – | CN(CCN1Cc2cc(Oc3ccccc3)ccc2N=C1N)C(=O)C1CCCCC1 [Compound 426, Cyclohexanecarboxylic acid [2-(2-amino-6-phenoxy-4H-quinazolin-3-yl)-ethyl]-methyl-amide] | inhibition at 0.3 µM (β-secretase(BACE) [2]; [3]): < 30%; inhibition at 1 µM (β-secretase(BACE) [2]; [4]): 34%; inhibition at 3 µM (β-secretase(BACE) [2]; [5]): 86%
0.16 µM | – | – | – | Cc1cccc(-c2ccc3c(c2)CN(CCNC(=O)C2CCCCC2)C(N)=N3)c1 [Compound 627] | inhibition at 0.3 µM (β-secretase(BACE) [2]; [3]): 39%; inhibition at 1 µM (β-secretase(BACE) [2]; [4]): 75%; inhibition at 3 µM (β-secretase(BACE) [2]; [5]): 105%
0.23 µM | – | – | – | CN(C(=O)CCC(c1ccccc1)N1Cc2cc(Oc3ccccc3)ccc2N=C1N)C1CCCCC1 (centres unmarked) [Compound 151] | inhibition at 3 µM (β-secretase(BACE) [2]; [5]): 79%; inhibition at 10 µM (β-secretase(BACE) [2]; 10 μM test compound, read-out: % Inhibition (FS) 10 μM): 104%
0.29 µM | – | – | – | Cc1cccc(Oc2ccc3c(c2)CN(Cc2cccc(C(=O)N(C)C4CCCCC4)c2)C(N)=N3)c1 [Compound 209] | inhibition at 0.3 µM (β-secretase(BACE) [2]; [3]): < 30%; inhibition at 1 µM (β-secretase(BACE) [2]; [4]): 58%; inhibition at 3 µM (β-secretase(BACE) [2]; [5]): 103%
– | <30% | 39% | 50% | COc1ccc(Sc2ccc3c(c2)CN(Cc2cccc(C(=O)N(C)C4CCCCC4)c2)C(N)=N3)cc1 [Compound 410] | –
– | <30% | <30% | 78% | CC(=O)Nc1ccc(Sc2ccc3c(c2)CN(Cc2cccc(C(=O)N(C)C4CCCCC4)c2)C(N)=N3)cc1 [Compound 417] | –
– | <30% | <30% | 77% | NC1=Nc2ccc(Oc3ccccc3)cc2CN1CCC(=O)N(C1CCCCC1)C1CCCCC1 [Compound 180] | –
– | <30% | 33% | <30% | CN(C(=O)c1cccc(CN2Cc3cc(Oc4cccnc4)ccc3N=C2N)c1)C1CCCCC1 [Compound 230] | –
– | <30% | 46% | <30% | CN(C(=O)c1cccc(CN2Cc3cc(Oc4ccccc4CC(N)=O)ccc3N=C2N)c1)C1CCCCC1 [Compound 235] | –
– | <30% | 29% | 48% | CN(C(=O)c1cccc(CN2Cc3cc(Nc4ccc5c(c4)OCO5)ccc3N=C2N)c1)C1CCCCC1 [Compound 441] | –
– | <30% | <30% | <30% | CN(C(=O)c1cccc(CN2Cc3cc(OCC4CCCC4)ccc3N=C2N)c1)C1CCCCC1 [Compound 521] | –
– | <30% | <30% | 56% | COc1cccc(C(=O)NCCN2Cc3cc(Oc4ccccc4)ccc3N=C2N)c1 [Compound 217] | –
– | <30% | <30% | <30% | CSc1ccccc1Oc1ccc2c(c1)CN(Cc1cccc(C(=O)N(C)C3CCCCC3)c1)C(N)=N2 [Compound 474] | –
– | <30% | 35% | 72% | CCOc1cccc(Nc2ccc3c(c2)CN(Cc2cccc(C(=O)N(C)C4CCCCC4)c2)C(N)=N3)c1 [Compound 440] | –
– | – | – | 40% | NC1=Nc2ccc(Oc3ccccc3)cc2CN1CCCCNC(=O)C1CCCCC1 [Compound 115] | % Inhibition (FS) 10 μM (β-secretase(BACE) [2]; 10 μM test compound): 105%
